In article doi:10.1101/2024.08.19.608619, “Discovery of potent SARS-CoV-2 nsp3 macrodomain inhibitors uncovers lack of translation to cellular antiviral response” (bioRxiv, 2024):
pEC50, pIC50: −log10 of the molar value. Where two headings read alike, the source gives them in different places.

Assays:
iPSC pneumocytes = iPSC pneumocytes cytotoxicity; format: cell-based; conditions: for perc_max_measured: highest measured response of the dose series; for perc_min_measured: lowest measured response of the dose series
From the text: (§1) Supplement media-1.zip/Cytotoxicity.csv, table | column: cc10; cc50; perc_min_measured; perc_max_measured

SARS-CoV-2 = assay: Antiviral effect in iPSC-derived pneumocyte system; format: cell-based; conditions: iPSC pneumocytes SARS-CoV-2 antiviral effect; for perc_max_measured: maximum measured response of dose series; for perc_min_measured: minimum measured response of dose series
PKCα(h) = target: T1, PKCα(h) (Homo sapiens, UniProt P17252); assay: biochemical; design: In vitro kinase panel profiling, per cent remaining kinase activity at 10 uM; conditions: atp_concentration=45, read-out: % of control remaining
T1 construct: gene PRKCA
From the text: (§2) We derisk potential for off-target activity by profiling the compound in a CEREP panel, a standard secondary pharmacology assessment, as well as a kinase panel to derisk a potential hinge-binding motif in our leads, and a PARP panel to derisk activity against human […]. Reassuringly, the compounds are selective, with the only off-targets being moderate human CHRM2 and KOR receptors activity associated with ASAP-0011198.

HeLa-ACE2 cells = conditions: read-out: 50.0; ASAP-0008327-001=ASAP-0008418-001; 1440 min
delta (DOP) (h) = target: T2, delta (DOP) (h) (Homo sapiens, UniProt P41143); assay: In vitro CEREP profiling, delta (DOP) (h) (agonist radioligand); format: binding; conditions: test compound concentration 10 uM; for inhibition at 10 µM: read-out: perc_inhibition (% inhibition of the binding of a ligand specific for each target)
T2 construct: purchased Eurofins Cerep (SafetyScreen44), recognised from the panel format
From the text: (§3) Supplement media-1.zip/Safety_Panel_Profile.csv, table | column: perc_inhibition

CB2 (h) = target: T3, CB2 (h) (Homo sapiens, UniProt P34972); assay: In vitro CEREP profiling, CB2 (h) (agonist radioligand); format: binding; conditions: test compound 10 uM; for inhibition at 10 µM: read-out: perc_inhibition (% inhibition of the binding of a ligand specific for each target)
T3 construct: purchased Eurofins Cerep (SafetyScreen44), recognised from the panel format
From the text: as §3

in vitro = conditions: human, HeLa-ACE2 cells (uninfected)
MDR1 = assay: Permeability Papp (AB) MDR1/MDCKII; conditions: dog; for Papp A→B: A to B; for Papp B→A: B to A
5-HT1A (h) = target: T4, 5-HT1A (h) (Homo sapiens, UniProt P08908); assay: In vitro CEREP profiling, 5-HT1A (h) (agonist radioligand); format: binding; conditions: test compound concentration 10 uM; for inhibition at 10 µM: read-out: perc_inhibition (% inhibition of the binding of a ligand specific for each target)
T4 construct: purchased Eurofins Cerep (SafetyScreen44), recognised from the panel format
T4 sequence (P08908 1-422): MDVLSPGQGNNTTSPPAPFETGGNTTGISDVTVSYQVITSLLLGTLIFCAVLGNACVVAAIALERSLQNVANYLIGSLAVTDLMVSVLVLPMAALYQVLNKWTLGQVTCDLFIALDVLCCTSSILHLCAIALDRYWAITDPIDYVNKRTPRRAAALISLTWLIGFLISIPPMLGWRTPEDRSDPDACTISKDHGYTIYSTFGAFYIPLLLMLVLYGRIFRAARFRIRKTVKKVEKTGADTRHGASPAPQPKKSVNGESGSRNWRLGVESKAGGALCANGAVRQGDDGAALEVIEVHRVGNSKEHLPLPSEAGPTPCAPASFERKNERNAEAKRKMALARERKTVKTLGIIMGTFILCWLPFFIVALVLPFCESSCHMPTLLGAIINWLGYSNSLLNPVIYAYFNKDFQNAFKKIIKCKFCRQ
From the text: as §3

MAO-A = target: T5, MAO-A (Rattus norvegicus, UniProt P21396); assay: In vitro CEREP profiling, MAO-A (antagonist radioligand); format: binding; conditions: test compound concentration 10 uM; for inhibition at 10 µM: read-out: perc_inhibition (% inhibition of the binding of a ligand specific for each target)
T5 construct: purchased Eurofins Cerep (SafetyScreen44), recognised from the panel format
T5 sequence (P21396 1-526): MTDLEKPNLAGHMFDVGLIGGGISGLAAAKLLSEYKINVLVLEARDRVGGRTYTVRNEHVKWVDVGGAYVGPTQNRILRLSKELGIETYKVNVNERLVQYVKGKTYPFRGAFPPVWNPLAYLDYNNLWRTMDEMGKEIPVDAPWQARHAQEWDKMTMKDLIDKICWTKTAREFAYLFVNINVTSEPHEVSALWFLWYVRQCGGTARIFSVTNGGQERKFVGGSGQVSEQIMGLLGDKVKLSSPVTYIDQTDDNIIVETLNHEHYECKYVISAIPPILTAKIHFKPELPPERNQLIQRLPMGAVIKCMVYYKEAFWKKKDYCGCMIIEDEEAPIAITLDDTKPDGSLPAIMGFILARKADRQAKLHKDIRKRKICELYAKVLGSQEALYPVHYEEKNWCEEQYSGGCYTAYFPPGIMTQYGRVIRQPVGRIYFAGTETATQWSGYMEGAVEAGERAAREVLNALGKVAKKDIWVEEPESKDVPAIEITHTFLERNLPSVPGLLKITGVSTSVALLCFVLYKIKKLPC
From the text: as §3

MAPKAP-K2(h) = target: T6, MAPKAP-K2(h) (Homo sapiens, UniProt P49137); assay: biochemical; design: In vitro kinase panel profiling, per cent remaining kinase activity at 10 uM; conditions: atp_concentration=90, read-out: % of control remaining
T6 construct: gene MAPKAPK2
From the text: as §2

Vero E6/TMPRSS2 = Vero E6/TMPRSS2 cytotoxicity with P-gp inhibitor; format: cell-based; conditions: for perc_max_measured: highest measured response of the dose series; for perc_min_measured: lowest measured response of the dose series
From the text: as §1

dopamine transporter (h) = target: T7, dopamine transporter (h) (Homo sapiens, UniProt Q01959); assay: In vitro CEREP profiling, dopamine transporter (h) (antagonist radioligand); format: binding; conditions: test compound concentration 10 uM; for inhibition at 10 µM: read-out: perc_inhibition, % inhibition of the binding of a ligand specific for each target
T7 construct: purchased Eurofins Cerep (SafetyScreen44), recognised from the panel format
From the text: as §3

5-HT1B (h) = target: T8, 5-HT1B (h) (Homo sapiens, UniProt P28222); assay: In vitro CEREP profiling, 5-HT1B (h) (antagonist radioligand); format: binding; conditions: test compound concentration 10 uM; for inhibition at 10 µM: read-out: perc_inhibition (% inhibition of the binding of a ligand specific for each target)
T8 construct: purchased Eurofins Cerep (SafetyScreen44), recognised from the panel format
From the text: as §3

[1] = tested on: Ca2+ channel (L, dihydropyridine site); assay: In vitro CEREP profiling, Ca2+ channel (L, dihydropyridine site) (antagonist radioligand); format: binding; conditions: test compound concentration 10 uM
From the text: as §3

SARS-CoV-2 nsp3-mac1 = SARS-CoV-2 nsp3-mac1 (Severe acute respiratory syndrome coronavirus 2, UniProt P0DTD1); assay: biochemical
5-HT transporter (h) = target: T9, 5-HT transporter (h) (Homo sapiens, UniProt P31645); assay: In vitro CEREP profiling, 5-HT transporter (h) (antagonist radioligand); format: binding; conditions: test compound concentration 10 uM
T9 construct: purchased Eurofins Cerep (SafetyScreen44), recognised from the panel format
From the text: as §3

[2] = protocol iPSC pneumocytes cytotoxicity
[3] = MDCK-MDR1, efflux_ratio, In vitro MDR1-MDCKII permeability, no inhibitor
[4] = MDCK-MDR1, papp_a_to_b_mean, In vitro MDR1-MDCKII permeability, no inhibitor
[5] = MDCK-MDR1, papp_b_to_a_mean, In vitro MDR1-MDCKII permeability, no inhibitor
[6] = Severe acute respiratory syndrome coronavirus 2

T2 sequence (P41143 whole entry): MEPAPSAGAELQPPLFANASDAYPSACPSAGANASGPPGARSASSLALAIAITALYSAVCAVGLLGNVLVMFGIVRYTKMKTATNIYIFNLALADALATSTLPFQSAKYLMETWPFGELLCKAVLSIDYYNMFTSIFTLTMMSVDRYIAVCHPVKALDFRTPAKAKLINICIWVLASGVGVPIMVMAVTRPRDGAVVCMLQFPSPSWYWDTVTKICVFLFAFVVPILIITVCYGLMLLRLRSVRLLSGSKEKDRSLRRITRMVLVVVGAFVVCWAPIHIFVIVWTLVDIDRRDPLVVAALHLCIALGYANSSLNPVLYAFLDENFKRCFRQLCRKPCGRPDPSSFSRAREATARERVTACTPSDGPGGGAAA
T3 sequence (P34972 whole entry): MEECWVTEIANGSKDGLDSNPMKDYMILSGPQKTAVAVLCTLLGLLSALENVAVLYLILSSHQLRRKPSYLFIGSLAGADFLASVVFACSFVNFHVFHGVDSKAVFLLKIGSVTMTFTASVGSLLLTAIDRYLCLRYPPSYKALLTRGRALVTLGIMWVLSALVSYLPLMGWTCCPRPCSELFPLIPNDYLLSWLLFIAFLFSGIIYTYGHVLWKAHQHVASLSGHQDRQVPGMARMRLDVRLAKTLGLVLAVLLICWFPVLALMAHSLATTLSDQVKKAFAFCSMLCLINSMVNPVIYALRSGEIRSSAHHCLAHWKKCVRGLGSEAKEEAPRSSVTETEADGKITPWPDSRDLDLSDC
T6 sequence (P49137 whole entry): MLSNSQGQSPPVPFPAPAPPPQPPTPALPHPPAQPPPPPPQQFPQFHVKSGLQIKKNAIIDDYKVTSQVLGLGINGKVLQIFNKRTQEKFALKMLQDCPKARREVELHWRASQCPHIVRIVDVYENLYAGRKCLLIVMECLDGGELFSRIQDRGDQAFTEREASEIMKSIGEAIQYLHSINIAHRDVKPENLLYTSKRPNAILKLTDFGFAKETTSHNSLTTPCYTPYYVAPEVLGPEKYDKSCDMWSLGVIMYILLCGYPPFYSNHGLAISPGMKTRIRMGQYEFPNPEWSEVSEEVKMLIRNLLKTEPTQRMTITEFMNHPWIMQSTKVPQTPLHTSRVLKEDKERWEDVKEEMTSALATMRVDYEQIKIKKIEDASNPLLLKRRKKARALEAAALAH
T7 sequence (Q01959 whole entry): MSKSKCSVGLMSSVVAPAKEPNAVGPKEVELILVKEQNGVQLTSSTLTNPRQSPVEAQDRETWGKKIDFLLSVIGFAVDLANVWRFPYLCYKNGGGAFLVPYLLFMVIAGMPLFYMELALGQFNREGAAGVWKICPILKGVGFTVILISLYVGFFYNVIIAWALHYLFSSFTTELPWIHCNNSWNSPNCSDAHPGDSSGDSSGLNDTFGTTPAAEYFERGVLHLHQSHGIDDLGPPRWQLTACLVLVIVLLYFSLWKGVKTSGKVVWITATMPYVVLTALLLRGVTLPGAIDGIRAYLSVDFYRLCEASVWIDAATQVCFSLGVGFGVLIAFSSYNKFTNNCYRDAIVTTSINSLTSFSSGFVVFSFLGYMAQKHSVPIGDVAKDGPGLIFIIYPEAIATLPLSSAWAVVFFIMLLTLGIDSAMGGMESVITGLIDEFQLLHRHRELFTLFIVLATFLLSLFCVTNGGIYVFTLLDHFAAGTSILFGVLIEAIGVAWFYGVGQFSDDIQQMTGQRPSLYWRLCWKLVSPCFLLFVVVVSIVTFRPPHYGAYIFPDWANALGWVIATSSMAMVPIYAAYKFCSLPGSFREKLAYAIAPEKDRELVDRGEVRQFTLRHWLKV
T8 sequence (P28222 whole entry): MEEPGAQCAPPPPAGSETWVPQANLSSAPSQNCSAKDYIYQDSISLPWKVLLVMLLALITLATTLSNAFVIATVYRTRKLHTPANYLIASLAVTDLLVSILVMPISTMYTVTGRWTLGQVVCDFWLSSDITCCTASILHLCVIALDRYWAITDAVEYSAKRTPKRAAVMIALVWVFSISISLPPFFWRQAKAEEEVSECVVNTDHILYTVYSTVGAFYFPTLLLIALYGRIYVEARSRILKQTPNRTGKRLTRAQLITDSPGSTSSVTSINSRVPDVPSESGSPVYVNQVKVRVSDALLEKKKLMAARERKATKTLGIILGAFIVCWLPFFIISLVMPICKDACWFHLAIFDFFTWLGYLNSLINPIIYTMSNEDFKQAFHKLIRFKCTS
T9 sequence (P31645 whole entry): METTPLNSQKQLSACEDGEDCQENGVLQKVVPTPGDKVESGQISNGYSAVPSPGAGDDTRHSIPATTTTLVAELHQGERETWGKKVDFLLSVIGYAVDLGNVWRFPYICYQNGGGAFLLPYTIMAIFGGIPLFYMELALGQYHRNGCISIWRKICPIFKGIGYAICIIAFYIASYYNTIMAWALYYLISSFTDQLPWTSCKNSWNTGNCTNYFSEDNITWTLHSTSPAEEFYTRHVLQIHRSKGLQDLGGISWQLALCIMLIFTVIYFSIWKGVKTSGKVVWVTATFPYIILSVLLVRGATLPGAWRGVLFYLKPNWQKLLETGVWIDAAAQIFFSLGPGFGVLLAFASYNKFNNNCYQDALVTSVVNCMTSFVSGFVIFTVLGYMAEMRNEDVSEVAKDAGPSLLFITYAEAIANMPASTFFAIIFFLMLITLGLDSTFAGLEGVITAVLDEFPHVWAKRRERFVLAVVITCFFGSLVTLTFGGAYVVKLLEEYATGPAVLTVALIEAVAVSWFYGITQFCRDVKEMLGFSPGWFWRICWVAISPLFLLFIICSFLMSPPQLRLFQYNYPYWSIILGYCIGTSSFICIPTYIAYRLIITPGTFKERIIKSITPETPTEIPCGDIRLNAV

| SMILES | perc_max_measured (SARS-CoV-2) [%] | perc_min_measured (SARS-CoV-2) [%] | inhibition at 10 µM (delta (DOP) (h)) [%] | inhibition at 10 µM (CB2 (h)) [%] | CC50 at 24 h (in vitro) [µM] | efflux ratio (MDR1; [3]) | Papp A→B (MDR1; [4]) [×10⁻⁶ cm/s] | Papp B→A (MDR1; [5]) [×10⁻⁶ cm/s] | inhibition at 10 µM (5-HT1A (h)) [%] | inhibition at 10 µM (MAO-A) [%] | cc10 (Vero E6/TMPRSS2) [µM] | perc_max_measured (Vero E6/TMPRSS2) [%] | perc_min_measured (Vero E6/TMPRSS2) [%] | inhibition at 10 µM (dopamine transporter (h)) [%] | inhibition at 10 µM (5-HT1B (h)) [%] | perc_inhibition (% inhibition of the binding of a ligand specific for each target) [1] [%] | perc_inhibition (% inhibition of the binding of a ligand specific for each target) (delta (DOP) (h)) [%] | perc_inhibition (% inhibition of the binding of a ligand specific for each target) (CB2 (h)) [%] | perc_inhibition (% inhibition of the binding of a ligand specific for each target) (5-HT transporter (h)) [%] | perc_inhibition (% inhibition of the binding of a ligand specific for each target) (5-HT1A (h)) [%] | further results |
| --- | --- | --- | --- | --- | --- | --- | --- | --- | --- | --- | --- | --- | --- | --- | --- | --- | --- | --- | --- | --- | --- |
| CC(C)[C@@H](Nc1ncnc2[nH]c(-c3cnn(C)c3C#N)cc12)c1ccc2c(n1)OCCO2 [ASAP-0008418] | 116.418 | 5.314 |  |  |  |  |  |  |  |  |  |  |  |  |  |  |  |  |  |  | perc_max_measured (iPSC pneumocytes; [2]): 95.683%; perc_min_measured (iPSC pneumocytes; [2]): 63.391%; pEC50 (SARS-CoV-2): 4.89; EC90 (SARS-CoV-2): 15.6 µM; remaining activity at 10 µM (PKCα(h); batch_name=ASAP-0008418-001): 90%; CC50 (HeLa-ACE2 cells): > 50 µM |
| CC(C)C(Nc1ncnc2[nH]c(C(=O)NC3CCN(C)C3)cc12)c1ccc2c(c1)S(=O)(=O)CCC2 (stereo not shown) [ASAP-0011198] | 101.646 | 52.305 | -16 | -8 | > 20 | 1.3 | 0.0323 | 0.0411 | 14 | 3 | > 5.0 | 120.684 | 90.027 | 22 | 17 | -6 |  |  |  |  | perc_max_measured (iPSC pneumocytes): 99.57%; perc_min_measured (iPSC pneumocytes): 87.748%; Papp A→B (MDR1; MDCK-MDR1, papp_a_to_b_mean, In vitro MDR1-MDCKII permeability, mean): 2.94 ×10⁻⁶ cm/s; efflux ratio (MDR1; MDCK-MDR1, with Cyclosporin A, efflux_ratio_inhibitor, MDR1-MDCKII, with inhibitor Cyclosporin A): 1.7; Papp A→B (MDR1; MDCK-MDR1, with Cyclosporin A, papp_a_to_b_inhibitor_mean, MDR1-MDCKII, with inhibitor Cyclosporin A): < 0.01 ×10⁻⁶ cm/s; pEC50 (SARS-CoV-2; [6]): < 4.30; EC90 (SARS-CoV-2; [6]): > 50 µM; remaining activity at 10 µM (MAPKAP-K2(h); batch_name=ASAP-0011198-002): 108%; remaining activity at 10 µM (PKCα(h); batch_name=ASAP-0011198-002): 101%; pIC50 (SARS-CoV-2 nsp3-mac1; HTRF IC50, Figure 6, tool compounds): 7.19 |
| Cc1nn(C)cc1-c1cc2c(NC(c3ccc4c(c3)S(=O)(=O)CCC4)C(C)C)ncnc2[nH]1 (stereo not shown) [ASAP-0011446] |  |  | 16 | -8 | > 20 | 41.1 | 0.0911 | 3.7 | 10 | 5 | > 5.0 | 106.351 | 79.435 | 13 | 15 | 12 |  |  |  |  | efflux ratio (MDR1; MDCK-MDR1, with Verapamil, efflux_ratio_inhibitor, MDR1-MDCKII, with inhibitor Verapamil): 21.8; Papp A→B (MDR1; MDCK-MDR1, with Verapamil, papp_a_to_b_inhibitor_mean, MDR1-MDCKII, with inhibitor Verapamil): 0.216 ×10⁻⁶ cm/s; Papp B→A (MDR1; MDCK-MDR1, with Verapamil, papp_b_to_a_inhibitor_mean, MDR1-MDCKII, with inhibitor Verapamil): 4.7 ×10⁻⁶ cm/s; remaining activity at 10 µM (MAPKAP-K2(h); batch_name=ASAP-0011446-002): 110%; remaining activity at 10 µM (PKCα(h); batch_name=ASAP-0011446-002): 93%; pIC50 (SARS-CoV-2 nsp3-mac1; HTRF IC50, Figure 4B, bioactive pure enantiomer): 7.68 |
| C[C@H](C(=O)O)[C@@H](NC(=O)c1ncnc2[nH]ccc12)c1ccc(Br)cc1 [ASAP-0014722] |  |  |  |  |  |  |  |  |  |  | > 5.0 | 112.113 | 82.421 |  |  | -12 | -24 | -5 | 0 | 2 | perc_inhibition (% inhibition of the binding of a ligand specific for each target) (MAO-A): -1%; remaining activity at 10 µM (MAPKAP-K2(h); batch_name=ASAP-0014722-002): 98%; remaining activity at 10 µM (PKCα(h); batch_name=ASAP-0014722-002): 108%; CC50 (Vero E6/TMPRSS2): > 5 µM; perc_inhibition (% inhibition of the binding of a ligand specific for each target) (dopamine transporter (h)): 4%; perc_inhibition (% inhibition of the binding of a ligand specific for each target) (5-HT1B (h)): 1% |
| COc1ccc([C@H](Cc2nnn[nH]2)NC(=O)c2ncnc3[nH]ccc23)cc1 [ASAP-0015381] |  |  |  |  |  |  |  |  |  |  | > 5.0 | 119.979 | 89.804 |  |  | -22 | -30 | -11 | -1 | 5 | perc_inhibition (% inhibition of the binding of a ligand specific for each target) (MAO-A): 0%; remaining activity at 10 µM (MAPKAP-K2(h); batch_name=ASAP-0015381-001): 102%; remaining activity at 10 µM (PKCα(h); batch_name=ASAP-0015381-001): 93%; CC50 (Vero E6/TMPRSS2): > 5 µM; perc_inhibition (% inhibition of the binding of a ligand specific for each target) (dopamine transporter (h)): 7%; perc_inhibition (% inhibition of the binding of a ligand specific for each target) (5-HT1B (h)): -14% |
